Experimental data from patent US20220192984A1, “PHARMACEUTICAL COMPOSITIONS COMPRISING OTIC THERAPEUTIC AGENTS AND RELATED METHODS” (Frequency Therapeutics, Inc., priority 2018, published 2022).
Counter-ions that a name gives are not always drawn. Like-named read-outs stand apart in the source and are kept apart here.

Legend:
[1] = Human In Vivo Conc listed for agents
[2] = target: T1, LSD1 (Homo sapiens, UniProt O60341); conditions: Table 18, cited from earlier work
[3] = target: T2, MAO A (Homo sapiens, UniProt P21397); conditions: Table 18, MAO A (first value or marked A); read-out: Select MAOs A and B; cited from earlier work
T2 sequence (P21397 1-527): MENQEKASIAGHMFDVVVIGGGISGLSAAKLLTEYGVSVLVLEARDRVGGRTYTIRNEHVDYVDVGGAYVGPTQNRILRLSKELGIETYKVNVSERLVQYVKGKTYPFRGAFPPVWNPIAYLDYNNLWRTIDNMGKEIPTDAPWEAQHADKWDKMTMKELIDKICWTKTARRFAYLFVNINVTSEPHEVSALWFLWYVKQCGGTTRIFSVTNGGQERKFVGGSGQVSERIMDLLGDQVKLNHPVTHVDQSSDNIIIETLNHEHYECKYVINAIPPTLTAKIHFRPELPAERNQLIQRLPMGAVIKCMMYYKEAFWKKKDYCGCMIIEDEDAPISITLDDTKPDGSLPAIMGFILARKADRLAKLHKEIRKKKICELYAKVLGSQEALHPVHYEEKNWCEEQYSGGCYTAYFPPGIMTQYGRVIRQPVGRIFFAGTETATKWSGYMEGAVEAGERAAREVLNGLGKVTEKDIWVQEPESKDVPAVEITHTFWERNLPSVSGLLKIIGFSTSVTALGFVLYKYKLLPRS

[4] = test system: Lgr5+ cells; experiment: Lgr5+ Assay (Lgr5+ cell assay in vitro); format: cell-based
[5] = target: T3, EZH2 (Homo sapiens, UniProt Q15910); conditions: Table 19; cited from earlier work
T3 sequence (Q15910 whole entry, species assumed): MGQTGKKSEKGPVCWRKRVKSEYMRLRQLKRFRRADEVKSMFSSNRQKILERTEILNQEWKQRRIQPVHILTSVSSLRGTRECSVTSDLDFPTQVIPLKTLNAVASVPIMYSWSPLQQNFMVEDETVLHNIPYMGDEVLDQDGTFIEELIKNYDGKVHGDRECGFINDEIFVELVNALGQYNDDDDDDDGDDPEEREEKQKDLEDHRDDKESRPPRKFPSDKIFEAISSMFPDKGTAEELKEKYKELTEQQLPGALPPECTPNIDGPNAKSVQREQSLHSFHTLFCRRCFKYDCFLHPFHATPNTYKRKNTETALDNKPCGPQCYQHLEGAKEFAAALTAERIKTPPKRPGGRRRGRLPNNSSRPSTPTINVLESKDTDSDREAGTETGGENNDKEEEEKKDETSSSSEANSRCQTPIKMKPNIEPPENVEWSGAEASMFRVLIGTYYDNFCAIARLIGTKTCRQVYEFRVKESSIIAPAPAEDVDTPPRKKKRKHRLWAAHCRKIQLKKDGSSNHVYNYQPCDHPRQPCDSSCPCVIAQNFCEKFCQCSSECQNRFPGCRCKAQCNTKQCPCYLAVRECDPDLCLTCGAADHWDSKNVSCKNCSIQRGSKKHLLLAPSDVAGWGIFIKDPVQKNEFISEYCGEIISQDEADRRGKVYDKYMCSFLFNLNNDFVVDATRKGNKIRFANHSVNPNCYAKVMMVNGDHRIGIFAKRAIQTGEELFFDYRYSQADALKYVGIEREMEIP
T3 sequence (O75530 whole entry partner, species assumed): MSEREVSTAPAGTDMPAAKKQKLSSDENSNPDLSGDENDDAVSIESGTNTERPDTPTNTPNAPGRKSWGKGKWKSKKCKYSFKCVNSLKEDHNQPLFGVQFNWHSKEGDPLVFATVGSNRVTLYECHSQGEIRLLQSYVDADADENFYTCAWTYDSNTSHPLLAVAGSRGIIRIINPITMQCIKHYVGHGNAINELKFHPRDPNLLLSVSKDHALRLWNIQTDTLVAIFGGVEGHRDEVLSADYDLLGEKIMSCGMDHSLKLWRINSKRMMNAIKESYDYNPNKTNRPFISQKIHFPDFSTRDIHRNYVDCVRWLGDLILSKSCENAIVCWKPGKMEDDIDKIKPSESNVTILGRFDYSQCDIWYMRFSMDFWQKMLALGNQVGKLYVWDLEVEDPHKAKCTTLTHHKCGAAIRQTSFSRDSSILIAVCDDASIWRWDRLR
T3 sequence (Q15022 whole entry partner, species assumed): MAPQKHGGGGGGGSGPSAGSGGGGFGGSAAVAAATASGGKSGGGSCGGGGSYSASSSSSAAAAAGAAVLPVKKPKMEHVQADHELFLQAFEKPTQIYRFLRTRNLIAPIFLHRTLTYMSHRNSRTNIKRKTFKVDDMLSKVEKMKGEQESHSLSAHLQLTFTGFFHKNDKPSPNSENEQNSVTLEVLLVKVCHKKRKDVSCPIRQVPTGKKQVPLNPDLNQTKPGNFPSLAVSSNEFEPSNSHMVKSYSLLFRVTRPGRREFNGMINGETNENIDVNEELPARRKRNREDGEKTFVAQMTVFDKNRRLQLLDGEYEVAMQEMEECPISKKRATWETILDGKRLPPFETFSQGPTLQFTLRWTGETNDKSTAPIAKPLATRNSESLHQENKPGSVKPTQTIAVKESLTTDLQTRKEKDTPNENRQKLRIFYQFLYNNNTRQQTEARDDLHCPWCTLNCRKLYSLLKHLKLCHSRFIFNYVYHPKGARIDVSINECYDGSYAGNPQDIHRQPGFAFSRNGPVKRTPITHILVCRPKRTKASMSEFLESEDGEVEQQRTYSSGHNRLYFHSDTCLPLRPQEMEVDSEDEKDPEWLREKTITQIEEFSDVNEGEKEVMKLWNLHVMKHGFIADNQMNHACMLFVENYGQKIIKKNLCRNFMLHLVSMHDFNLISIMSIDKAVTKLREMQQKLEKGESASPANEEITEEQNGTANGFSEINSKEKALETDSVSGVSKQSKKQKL

[6] = Perilymph Conc. listed for agents (Tables 14-25)
[7] = cited from earlier work
[8] = target: GSK-3 alpha (Homo sapiens, UniProt P49840); conditions: cited from earlier work
Sequence of GSK-3 alpha (P49840 whole entry): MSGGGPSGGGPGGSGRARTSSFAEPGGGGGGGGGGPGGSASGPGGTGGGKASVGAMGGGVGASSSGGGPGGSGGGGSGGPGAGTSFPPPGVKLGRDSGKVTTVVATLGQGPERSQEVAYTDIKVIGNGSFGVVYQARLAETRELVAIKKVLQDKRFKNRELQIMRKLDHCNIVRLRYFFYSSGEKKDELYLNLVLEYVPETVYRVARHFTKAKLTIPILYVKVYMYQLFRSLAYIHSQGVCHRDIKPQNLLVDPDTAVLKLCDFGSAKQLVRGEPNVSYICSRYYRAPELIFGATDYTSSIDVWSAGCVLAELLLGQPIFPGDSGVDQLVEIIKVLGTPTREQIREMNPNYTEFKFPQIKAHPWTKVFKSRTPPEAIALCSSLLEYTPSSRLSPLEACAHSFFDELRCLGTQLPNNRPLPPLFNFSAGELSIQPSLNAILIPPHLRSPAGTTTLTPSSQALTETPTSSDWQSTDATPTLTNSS

[9] = test system: TAZ; conditions: Table 22; cited from earlier work
[10] = test system: KDM; conditions: Table 21; cited from earlier work
[11] = target: T1, LSD1; conditions: Table 18, LSD1; read-out: pKi or IC50 (converted); cited from earlier work
[12] = target: T3, EZH2; conditions: Table 19, EZH2; read-out: pKi or IC50 (converted); cited from earlier work
[13] = target: T4, DOT1L (Homo sapiens, UniProt Q8TEK3); conditions: Table 20; cited from earlier work
T4 sequence (Q8TEK3 whole entry, species assumed): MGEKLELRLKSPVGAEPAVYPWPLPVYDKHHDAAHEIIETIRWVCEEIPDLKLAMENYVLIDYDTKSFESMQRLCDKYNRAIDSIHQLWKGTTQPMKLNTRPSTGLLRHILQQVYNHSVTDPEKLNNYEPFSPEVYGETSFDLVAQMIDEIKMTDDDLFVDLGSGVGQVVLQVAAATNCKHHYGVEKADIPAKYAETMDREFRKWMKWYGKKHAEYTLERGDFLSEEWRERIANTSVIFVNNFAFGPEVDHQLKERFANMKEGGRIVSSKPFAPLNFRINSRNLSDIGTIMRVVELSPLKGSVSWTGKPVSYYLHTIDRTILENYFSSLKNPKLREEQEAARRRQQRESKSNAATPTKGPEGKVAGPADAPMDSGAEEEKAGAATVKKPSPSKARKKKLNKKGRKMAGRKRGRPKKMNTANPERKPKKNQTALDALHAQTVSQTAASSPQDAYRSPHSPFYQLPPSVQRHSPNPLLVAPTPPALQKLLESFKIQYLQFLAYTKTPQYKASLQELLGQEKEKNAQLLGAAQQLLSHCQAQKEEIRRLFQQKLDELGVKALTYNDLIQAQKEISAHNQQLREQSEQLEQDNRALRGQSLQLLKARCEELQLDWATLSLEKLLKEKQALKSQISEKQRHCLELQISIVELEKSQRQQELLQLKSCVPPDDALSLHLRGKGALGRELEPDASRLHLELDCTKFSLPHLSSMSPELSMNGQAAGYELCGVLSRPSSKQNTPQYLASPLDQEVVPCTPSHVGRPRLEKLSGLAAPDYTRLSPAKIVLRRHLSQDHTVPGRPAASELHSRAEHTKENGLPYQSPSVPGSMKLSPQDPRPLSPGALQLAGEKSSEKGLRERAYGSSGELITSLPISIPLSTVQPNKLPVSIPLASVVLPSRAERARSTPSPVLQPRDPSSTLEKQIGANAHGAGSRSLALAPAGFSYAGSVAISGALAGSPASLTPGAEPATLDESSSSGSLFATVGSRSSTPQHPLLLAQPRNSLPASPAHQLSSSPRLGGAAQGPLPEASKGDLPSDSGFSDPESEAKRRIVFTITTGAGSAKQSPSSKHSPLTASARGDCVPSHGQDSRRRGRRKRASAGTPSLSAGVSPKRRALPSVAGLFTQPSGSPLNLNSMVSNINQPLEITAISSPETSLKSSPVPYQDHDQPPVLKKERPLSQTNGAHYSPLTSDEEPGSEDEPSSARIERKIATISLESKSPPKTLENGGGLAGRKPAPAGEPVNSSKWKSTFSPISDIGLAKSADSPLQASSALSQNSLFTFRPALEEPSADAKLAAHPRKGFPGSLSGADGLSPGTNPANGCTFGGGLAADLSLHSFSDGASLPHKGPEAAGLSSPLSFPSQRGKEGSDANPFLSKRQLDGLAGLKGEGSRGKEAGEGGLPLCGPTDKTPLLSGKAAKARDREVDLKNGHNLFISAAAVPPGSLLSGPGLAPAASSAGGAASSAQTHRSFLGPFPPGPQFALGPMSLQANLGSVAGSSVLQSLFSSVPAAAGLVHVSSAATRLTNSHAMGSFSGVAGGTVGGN

[14] = test system: HDAC; conditions: Mechanism HDAC Inhib 1, 2, 3, 8; cited from earlier work
[15] = test system: KDM; conditions: cited from earlier work
[16] = target: T5, MAO B (Homo sapiens, UniProt P27338); conditions: Table 18, MAO B (second value or marked B); read-out: Select MAOs A and B; cited from earlier work
T5 sequence (P27338 1-520): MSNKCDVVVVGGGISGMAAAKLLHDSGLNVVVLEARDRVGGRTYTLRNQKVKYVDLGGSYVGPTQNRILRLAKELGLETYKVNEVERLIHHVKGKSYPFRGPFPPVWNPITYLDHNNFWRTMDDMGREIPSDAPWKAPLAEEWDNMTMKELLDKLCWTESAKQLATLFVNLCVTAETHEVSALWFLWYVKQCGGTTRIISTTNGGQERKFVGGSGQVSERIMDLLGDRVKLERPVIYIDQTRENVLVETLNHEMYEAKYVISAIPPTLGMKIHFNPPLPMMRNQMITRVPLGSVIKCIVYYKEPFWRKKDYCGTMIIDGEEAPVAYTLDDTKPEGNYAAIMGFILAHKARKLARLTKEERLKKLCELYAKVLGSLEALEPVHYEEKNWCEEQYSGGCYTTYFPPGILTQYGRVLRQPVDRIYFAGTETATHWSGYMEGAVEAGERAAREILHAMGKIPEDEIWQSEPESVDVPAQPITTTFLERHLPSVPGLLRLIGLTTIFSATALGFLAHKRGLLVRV

[17] = target: EZH-1 (Homo sapiens, UniProt Q92800); conditions: Table 19; read-out: Select vs EZH-1; cited from earlier work
Sequence of EZH-1 (Q92800 whole entry, species assumed): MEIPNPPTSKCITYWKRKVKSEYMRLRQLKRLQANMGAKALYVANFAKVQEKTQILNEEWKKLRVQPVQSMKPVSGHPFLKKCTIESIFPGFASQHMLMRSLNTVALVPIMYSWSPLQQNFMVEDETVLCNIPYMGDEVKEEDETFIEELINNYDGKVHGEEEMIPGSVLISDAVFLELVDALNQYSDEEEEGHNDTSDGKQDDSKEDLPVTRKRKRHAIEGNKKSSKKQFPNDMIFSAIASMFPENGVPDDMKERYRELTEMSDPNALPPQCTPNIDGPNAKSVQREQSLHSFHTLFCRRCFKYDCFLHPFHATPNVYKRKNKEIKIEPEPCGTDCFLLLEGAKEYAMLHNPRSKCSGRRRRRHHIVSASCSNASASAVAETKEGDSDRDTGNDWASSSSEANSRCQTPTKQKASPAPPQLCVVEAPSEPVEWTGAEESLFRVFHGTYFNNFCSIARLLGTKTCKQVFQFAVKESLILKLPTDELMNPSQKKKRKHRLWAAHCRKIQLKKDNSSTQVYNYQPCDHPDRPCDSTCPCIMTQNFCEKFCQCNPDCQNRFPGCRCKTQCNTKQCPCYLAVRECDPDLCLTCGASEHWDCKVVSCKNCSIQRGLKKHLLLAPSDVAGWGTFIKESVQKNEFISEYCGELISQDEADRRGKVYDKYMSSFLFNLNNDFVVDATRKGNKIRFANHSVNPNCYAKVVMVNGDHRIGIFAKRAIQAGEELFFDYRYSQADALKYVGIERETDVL
Sequence of EZH-1 (O75530 whole entry partner, species assumed): as the sequence (O75530 whole entry partner, species assumed) above
Sequence of EZH-1 (Q15022 whole entry partner, species assumed): as the sequence (Q15022 whole entry partner, species assumed) above

[18] = target: T4, DOT1L; conditions: Table 20; read-out: pKi or IC50 (converted); cited from earlier work
[19] = Table 14, listed concentration, no test described
[20] = Table 22, listed concentration, no test described
[21] = Table 20, listed concentration, no test described
[22] = HDAC inhibitor table, upper end of the wrapped range 100 uM-4 mM
[23] = HDAC inhibitor table, upper end of the wrapped range 100 uM-4 mM, no test described
[24] = Table 21, KDM 4, read-out: Select KDM 4

NNCCc1ccccc1 [Phenelzine sulfate]
Cmax ([1]; human, plasma, Table 18, value in brackets, converted): 73 to 440 nM | Literat. Cell [2]: 900 nM

N[C@H]1CC[C@H](N[C@@H]2C[C@H]2c2ccccc2)CC1 (relative stereo) [ORY-1001]
Literat. Cell [2]: 0.5 to 3 nM | IC50 [3]: > 100000 nM

Nc1nccc2c1ncn2C1C=C(CO)C(O)C1O (stereo not drawn) [DZNep]
Lgr5+ Assay ([4]; Table 19, result in words): Activity | Lit Cell Poten [5]: 1000 nM

CCN(c1cc(-c2ccc(CN3CCOCC3)cc2)cc(C(=O)NCc2c(C)cc(C)[nH]c2=O)c1C)C1CCOCC1 [Tazemetostat]
Perilymph Conc ([6]; Table 19): 0.37 to 1.1 µM | Human In Vivo Conc ([1]; Table 19, value in brackets, converted): (200-1600 nM) | Human In Vivo Conc ([7]; Table 19): 100 to 800 ng/mL

CCCc1cc(C)[nH]c(=O)c1CNC(=O)c1cc(-c2ccnc(N3CCN(C)CC3)c2)cc2c1cnn2C(C)C [GSK343]
Lit Cell Poten [5]: 174 nM

N#Cc1ccc2[nH]c(O)c(-c3ccc(CN4CCOCC4)cn3)c2c1 [AZD 1080]
Perilymph Conc [6, 19]: 1 to 5 µM | GSK-3 alpha [8]: 6.9 nM

C=CCNc1nc(N)c(C(=O)c2ccc(F)s2)s1 [TT10]
Lgr5+ Assay ([4]; Table 22): 1 to 10 µM | Perilymph Conc [6, 20]: 1 to 10 µM | Lit Cell [9]: 1 µM

O=C(O)CCNc1cc(N2CCc3ccccc3CC2)nc(-c2ccccn2)n1 [GSK-J1]
Lit Cell [10]: 50 µM

COC(=O)c1cc(CN2CCN(C(=N)N)CC2)cc(C(=O)N2CCN(C(=O)c3ccc(C(=N)N)cc3)CC2)c1 [CBB-1007]
Lgr5+ Assay ([4]; Table 18, result in words): Activity | IC50 [11]: 2100 nM | IC50 ([2]; read-out: Literat. Cell IC50): < 5000 nM

CCCc1cc(C)[nH]c(=O)c1CNC(=O)c1cc(-c2ccc(N3CCN(C(C)C)CC3)nc2)cc2c1cnn2C(C)C [UNCI 999]
Lgr5+ Assay ([4]; Table 19, result in words): Activity | IC50 [12]: 10 nM | Lit Cell Poten [5]: 124 nM

CC(C)N(CCCNC(=O)Nc1ccc(C(C)(C)C)cc1)C[C@H]1O[C@@H](n2cc(Br)c3c(N)ncnc32)[C@H](O)[C@@H]1O [SGC0946]
Perilymph Conc [6, 21]: 0.6 to 5 µM | Human In Vivo Conc ([1]; Table 20): 0.1 to 5 µM | Lit Cell [13]: 10 nM

C#CCC(CCCCCC)C(=O)O (stereo not drawn) [2-hexyl-4-pentynoic acid]
Lgr5+ Assay [4, 22]: ≤ 4000 µM | Perilymph Conc [6, 23]: ≤ 4000 µM | HDAC Potenc [14]: 13 µM

O=C(O)CCCc1ccccc1 [Na phenylbutyrate]
Lgr5+ Assay [4, 22]: ≤ 4000 µM | Perilymph Conc [6, 23]: ≤ 4000 µM | HDAC Potenc [14]: 9 to 16 µM

CC(C)N(C[C@H]1O[C@@H](n2cnc3c(N)ncnc32)[C@H](O)[C@@H]1O)[C@H]1C[C@@H](CCc2nc3cc(C(C)(C)C)ccc3[nH]2)C1 [Pinometostat (EPZ-5676)]
Perilymph Conc [6, 21]: 0.1 to 10 µM | Human In Vivo Conc ([1]; Table 20): (1-10 uM | Lit Cell [13]: 2.7 nM

CCCCc1nc2cc(-c3cccnc3)c(C)nc2n1Cc1ccc(-c2ccccc2-c2nn[nH]n2)cc1 [TM-25659]
Lgr5+ Assay ([4]; Table 22): 10 to 100 µM | Perilymph Conc [6, 20]: 10 to 100 µM | Lit Cell [9]: 10 to 100 µM

CC(C)N(CCCNC(=O)Nc1ccc(C(C)(C)C)cc1)C[C@H]1O[C@@H](n2ccc3c(N)ncnc32)[C@H](O)[C@@H]1O [EPZ004777]
Lgr5+ Assay ([4]; Table 20): 0.6 to 45 µM | Perilymph Conc [6, 21]: 0.6 to 45 µM | Human In Vivo Conc ([1]; Table 20): 0.1 to 45 µM

C/C(=N\NC(=O)c1cccc(S(=O)(=O)N2CCOCC2)c1)c1cc(Cl)ccc1O [SP-2509]
Lgr5+ Assay ([4]; Table 18, result in words): Activity | IC50 [11]: 13 nM | Literat. Cell [2]: 350 to 650 nM

CC(C)c1c(-c2ccccc2)[nH]c2c(C#N)cnn2c1=O [CPI-455]
IC50 [15, 24]: 41 nM | Lit Cell [10]: 0.09 µM

Cn1cc(C(=O)Nc2ccc([C@@H]3C[C@H]3NCC3CC3)cc2)cn1 [Compound T-3775440]
IC50 [3]: 110000 nM | IC50 [16]: 17000 nM

Cc1cc(C)c(CNC(=O)c2cc(-c3ccc(N4CCN(C)CC4)nc3)cc3c2cnn3C(C)C)c(=O)[nH]1 [GSK926]
IC50 [12]: 7.9 nM | Lit Cell Poten [5]: 324 nM

COc1cc(C)[nH]c(=O)c1CN1CCc2c(Cl)cc([C@H](OC)C3COC3)c(Cl)c2C1=O [PF-06821497]
Perilymph Conc ([6]; Table 19): 0.001 to 0.1 µM | Human In Vivo Conc ([7]; Table 19): 0.005 to 0.05 µM | IC50 [12]: < 1 nM | Lit Cell Poten [5]: 4 to 6 nM | IC50 [17]: 70 nM

Cc1ncccc1-c1c(Cl)sc2ccc(NC(=O)NCC(=O)NCCCN(C)[C@@H]3CCCN(c4ncnc5[nH]ccc45)C3)cc12 [Compound 7]
IC50 [18]: < 1 nM

CCN(c1cc(C#CCN2CCOCC2)cc(C(=O)NCc2c(C)cc(C)[nH]c2=O)c1C)[C@H]1CC[C@H](N(C)CCOC)CC1 [EPZ-011989]
Lit Cell Poten [5]: 94 nM

O=C(O)CCN(O)C(=O)CCCCCCCCC1CC1 [TC-E5002]
Lgr5+ Assay ([4]; Table 21): 0.12 to 10 µM | Perilymph Conc ([6]; Table 21): 0.12 to 10 µM | Human In Vivo Conc ([7]; Table 21): 0.12 to 10 µM | IC50 [15, 24]: 83000 nM | IC50 ([15]; Table 21, KDM 5, read-out: Select KDM 5): 55000 nM | IC50 ([15]; Table 21, KDM 6, read-out: Select KDM 6): > 100000 nM | Lit Cell [10]: 1640 µM

CNc1ccnc(Nc2ccc3cc(C)n(-c4ccccc4Oc4cnc5c(c4)ncn5C)c3c2)n1 [Compound 13]
IC50 [18]: 0.4 nM

Cc1ccc(C(=O)Nc2c[nH]nc2C(=O)NCCCOC(C)C)cn1 [GSK XXII]
Lgr5+ Assay ([4]; Table 14): 0.2 to 1 µM | Perilymph Conc [6, 19]: 0.2 to 1 µM | GSK-3 alpha [8]: 2.3 nM

CPI-169
Perilymph Conc ([6]; Table 19): 1 to 10 µM | Human In Vivo Conc ([7]; Table 19): 1 to 10 µM | IC50 [17]: 6 nM

N#Cc1c2c(c3nncn3c1NCc1ccco1)CN(Cc1ccccc1)CC2 [EED162]
IC50 [12]: 30 nM | Lit Cell Poten [5]: 80 nM

Cc1ccc(-c2ncc(OC[C@@H]3CCNC3)cc2-c2ccc(C#N)cc2)cc1 [GSK-354]
IC50 [11]: 29 to 80 nM | Literat. Cell [2]: 1300 nM | IC50 [16]: 19000 nM
